The series has as its target T1, CYP3A4 (Homo sapiens, UniProt P08684).
T1 construct: pre-incubated with human liver microsomes and NADPH; from tissue; host or cells: human liver microsomes
The series is described as follows: Cytochrome P450 inhibition assay (midazolam hydroxylation). The class given is in vitro ADME. The conditions noted are these: human, human liver microsomes, probe midazolam (hydroxylation to 1′-hydroxymidazolam), 10 μM test compound, midazolam at approximately its Km. As for the experimental part:
Compounds were tested for the potential to induce drug-drug interactions by inhibition of the cytochrome P450 3A4 isoform. The assay evaluated the metabolism of a specific marker substrate (CYP3A4, midazolam hydroxylation to 1′-hydroxymidazolam) in the presence or absence of 10 μM test compound. The concentration of the marker substrate was approximately its Km (Dixit et al., Biopharm. Drug Dispos. 2007, 28(5), 257-262). A specific inhibitor for the isoform was included in each run to validate the system. An appropriate positive control inhibitor was used. Mechanism-based inhibition was investigated where warranted using a classical method. To evaluate time-dependent inhibition, parallel samples may have been included where […] was pre-incubated with human liver microsomes and NADPH for 30 min prior to the addition of the P450 substrate. The percent inhibition of the pre-incubated and non-pre-incubated samples were compared as a preliminary evaluation of time-dependent inhibition.
Background: Microsomes from liver hold many membrane-bound enzymes, among them those of drug oxidation.

T1 sequence (P08684 whole entry): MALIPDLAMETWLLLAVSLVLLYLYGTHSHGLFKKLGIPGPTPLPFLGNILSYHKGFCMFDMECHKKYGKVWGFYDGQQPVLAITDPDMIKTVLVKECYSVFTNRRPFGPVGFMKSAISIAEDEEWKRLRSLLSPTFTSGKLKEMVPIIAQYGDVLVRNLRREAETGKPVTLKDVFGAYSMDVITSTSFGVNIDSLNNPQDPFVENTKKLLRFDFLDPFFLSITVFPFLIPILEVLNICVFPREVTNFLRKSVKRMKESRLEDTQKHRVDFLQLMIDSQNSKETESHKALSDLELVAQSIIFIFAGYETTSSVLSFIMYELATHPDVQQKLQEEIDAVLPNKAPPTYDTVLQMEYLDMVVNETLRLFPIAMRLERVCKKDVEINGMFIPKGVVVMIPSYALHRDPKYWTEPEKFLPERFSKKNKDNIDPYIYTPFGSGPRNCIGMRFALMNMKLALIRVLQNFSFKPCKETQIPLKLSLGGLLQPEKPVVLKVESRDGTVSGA

For the compound `COc1ccc(NC[C@@H]2[C@H](C)CCCN2C(=O)c2cc(C)ccc2-n2nccn2)nc1` [Example A126, ((2S,3R)-2-(((5-Methoxypyridin-2-yl)amino)methyl)-3-methylpiperidin-1-yl)(5-methyl-2-(2H-1,2,3-triazol-2-yl)phenyl)methanone], the inhibition at 10 µM turned out to be 56%.
The compound `Cc1ccc(-c2ccccn2)c(C(=O)N2CCC[C@@H](C)[C@H]2CNc2nc3cc(F)ccc3o2)c1` [Example A128, ((2S,3R)-2-(((5-Fluorobenzo[d]oxazol-2-yl)amino)methyl)-3-methylpiperidin-1-yl)(5-methyl-2-(pyridin-2-yl)phenyl)methanone] yielded an inhibition at 10 µM of 88%.
As for `Cc1ccc(-n2ccc(C)n2)c(C(=O)N2CCC[C@@H](C)[C@H]2CNc2ncc(C#N)cn2)c1` [Example A131, 2-((((2S,3R)-3-Methyl-1-(5-methyl-2-(3-methyl-1H-pyrazol-1-yl)benzoyl)piperidin-2-yl)methyl)amino)pyrimidine-5-carbonitrile], 10 µM produced 84% inhibition.
In turn, `Cc1ccc(-n2nccn2)c(C(=O)N2CCC[C@@H](C)[C@H]2CNc2ccc(C3CC3)cn2)c1` [Example A136, ((2S,3R)-2-(((5-Cyclopropylpyridin-2-yl)amino)methyl)-3-methylpiperidin-1-yl)(5-methyl-2-(2H-1,2,3-triazol-2-yl)phenyl)methanone] showed an inhibition at 10 µM of 91%.
The compound `Cc1ccc(-n2ncc(C)n2)c(C(=O)N2CCC[C@@H](C)[C@H]2CNc2nc3cc(F)ccc3o2)c1` [Example A141, ((2S,3R)-2-(((5-Fluorobenzo[d]oxazol-2-yl)amino)methyl)-3-methylpiperidin-1-yl)(5-methyl-2-(4-methyl-2H-1,2,3-triazol-2-yl)phenyl)methanone] came in with an inhibition at 10 µM of 72%.
The result for `Cc1ccc(-n2nccn2)c(C(=O)N2CCC[C@@H](C)[C@H]2CNc2ncc(Cl)cn2)c1` [Example A147, ((2S,3R)-2-(((5-Chloropyrimidin-2-yl)amino)methyl)-3-methylpiperidin-1-yl)(5-methyl-2-(2H-1,2,3-triazol-2-yl)phenyl)methanone] reads 66%; that for `Cc1ccc(-c2ccccn2)c(C(=O)N2CCC[C@@H](C)[C@H]2CNc2nnc(C(F)(F)F)s2)c1` [Example A151, ((2S,3R)-3-Methyl-2-(((5-(trifluoromethyl)-1,3,4-thiadiazol-2-yl)amino)methyl)piperidin-1-yl)(5-methyl-2-(pyridin-2-yl)phenyl)methanone], 86%.
`Cc1ccc(-n2cccn2)c(C(=O)N2CCC[C@@H](C)[C@H]2CNc2ccc(C#N)cn2)c1` [Example A155, 6-((((2S,3R)-3-Methyl-1-(5-methyl-2-(1H-pyrazol-1-yl)benzoyl)piperidin-2-yl)methyl)amino)nicotinonitrile] yielded an inhibition at 10 µM of 72%.
Next, `Cc1ccc(-n2nccn2)c(C(=O)N2CCC[C@@H](C)[C@H]2CNc2nccc(C(F)(F)F)n2)c1` [Example A163, ((2S,3R)-3-Methyl-2-(((4-(trifluoromethyl)pyrimidin-2-yl)amino)methyl)piperidin-1-yl)(5-methyl-2-(2H-1,2,3-triazol-2-yl)phenyl)methanone]: 90%.
Turning to `Cc1ccc(-n2cccn2)c(C(=O)N2CCC[C@@H](C)[C@H]2CNc2ccc(C(F)(F)F)nn2)n1` [Example A164, ((2S,3R)-3-Methyl-2-(((6-(trifluoromethyl)pyridazin-3-yl)amino)methyl)piperidin-1-yl)(6-methyl-3-(1H-pyrazol-1-yl)pyridin-2-yl)methanone], the inhibition at 10 µM is 37%.
The result for `Cc1ccc(-c2ccccn2)c(C(=O)N2CCC[C@@H](C)[C@H]2CNc2ccc(C(F)(F)F)nn2)n1` [Example A165, ((2S,3R)-3-methyl-2-(((6-(trifluoromethyl)pyridazin-3-yl)amino)methyl)piperidin-1-yl)(6′-methyl-[2,3′-bipyridin]-2′-yl)methanone] reads 42%; that for `Cc1ccc(-n2cccn2)c(C(=O)N2CCC[C@@H](C)[C@H]2CNc2ncc(F)cn2)c1` [Example A170, ((2S,3R)-2-(((5-Fluoropyrimidin-2-yl)amino)methyl)-3-methylpiperidin-1-yl)(5-methyl-2-(1H-pyrazol-1-yl)phenyl)methanone], 66%; that for `Cc1ccc(-n2nccn2)c(C(=O)N2CCC[C@@H](C)[C@H]2CNc2ncc(F)cc2F)c1` [Example A172, ((2S,3R)-2-(((3,5-Difluoropyridin-2-yl)amino)methyl)-3-methylpiperidin-1-yl)(5-methyl-2-(2H-1,2,3-triazol-2-yl)phenyl)methanone], 76%.
On to `Cc1ccc(-n2nccn2)c(C(=O)N2CCC[C@@H](C)[C@H]2CNc2ncc(Cl)cc2F)c1` [Example A173, ((2S,3R)-2-(((5-Chloro-3-fluoropyridin-2-yl)amino)methyl)-3-methylpiperidin-1-yl)(5-methyl-2-(2H-1,2,3-triazol-2-yl)phenyl)methanone], for which the inhibition at 10 µM was 81%.
Consider `Cc1ccc(-n2nccn2)c(C(=O)N2CCC[C@@H](C)[C@H]2CNc2ccc(Cl)cn2)n1` [Example A178, ((2S,3R)-2-(((5-Chloropyridin-2-yl)amino)methyl)-3-methylpiperidin-1-yl)(6-methyl-3-(2H-1,2,3-triazol-2-yl)pyridin-2-yl)methanone], for which 10 µM produced 64% inhibition.
Compound `Cc1ccc(-c2ncccn2)c(C(=O)N2CCC[C@@H](C)[C@H]2CNc2ccc(C(F)(F)F)cn2)n1` [Example A183, ((2S,3R)-3-Methyl-2-(((5-(trifluoromethyl)pyridin-2-yl)amino)methyl)piperidin-1-yl)(6-methyl-3-(pyrimidin-2-yl)pyridin-2-yl)methanone] registered an inhibition at 10 µM of 49%.
In the case of `Cc1ccc(-n2nccn2)c(C(=O)N2CCC[C@@H](C)[C@H]2CNc2nnc(C(F)(F)F)s2)n1` [Example A191, ((2S,3R)-3-Methyl-2-(((5-(trifluoromethyl)-1,3,4-thiadiazol-2-yl)amino)methyl)piperidin-1-yl)(6-methyl-3-(2H-1,2,3-triazol-2-yl)pyridin-2-yl)methanone], the inhibition at 10 µM came to 44%.
Regarding `Cc1ccc(-n2nccn2)c(C(=O)N2CCC[C@@H](C)[C@H]2CNc2ncc(C#N)cc2F)n1` [Example A193, 5-Fluoro-6-((((2S,3R)-3-methyl-1-(6-methyl-3-(2H-1,2,3-triazol-2-yl)picolinoyl)piperidin-2-yl)methyl)amino)nicotinonitrile], the inhibition at 10 µM was 45%.
As to `Cc1ccc(NC[C@@H]2[C@H](C)CCCN2C(=O)c2nc(C)ccc2-n2nccn2)nc1` [Example A196, ((2S,3R)-3-Methyl-2-(((5-methylpyridin-2-yl)amino)methyl)piperidin-1-yl)(6-methyl-3-(2H-1,2,3-triazol-2-yl)pyridin-2-yl)methanone], testing at 10 µM gave an inhibition of 50%.
`Cc1ccc(-c2cccnn2)c(C(=O)N2CCC[C@@H](C)[C@H]2CNc2ncc(C(F)(F)F)cn2)c1` [Example A198, ((2S,3R)-3-Methyl-2-(((5-(trifluoromethyl)pyrimidin-2-yl)amino)methyl)piperidin-1-yl)(5-methyl-2-(pyridazin-3-yl)phenyl)methanone] registered an inhibition at 10 µM of 51%.
The result for `C[C@@H]1CCCN(C(=O)c2cc(F)ccc2-n2nccn2)[C@@H]1CNc1ncc(C(F)(F)F)cn1` [Example A207, (5-Fluoro-2-(2H-1,2,3-triazol-2-yl)phenyl)((2S,3R)-3-methyl-2-(((5-(trifluoromethyl)pyrimidin-2-yl)amino)methyl)piperidin-1-yl)methanone] reads 44%; that for `Cc1ccc(-n2nccn2)c(C(=O)N2CCC(F)(F)C[C@H]2CNc2ccc(Cl)cn2)c1` [Example A210, (S)-(2-(((5-Chloropyridin-2-yl)amino)methyl)-4,4-difluoropiperidin-1-yl)(5-methyl-2-(2H-1,2,3-triazol-2-yl)phenyl)methanone], 76%.
On to `Cc1ccc(-n2nccn2)c(C(=O)N2CCC(F)(F)C[C@H]2CNc2ncc(C(F)(F)F)cn2)c1` [Example A211, (S)-(4,4-Difluoro-2-(((5-(trifluoromethyl)pyrimidin-2-yl)amino)methyl)piperidin-1-yl)(5-methyl-2-(2H-1,2,3-triazol-2-yl)phenyl)methanone], for which 10 µM produced 60% inhibition.
The result for `Cc1ccc(-n2nccn2)c(C(=O)N2CCC[C@@H](C)[C@H]2CNc2cc(C)nc3nc(C)nn23)c1` [Example A213, ((2S,3R)-2-(((2,5-Dimethyl-[1,2,4]triazolo[1,5-a]pyrimidin-7-yl)amino)methyl)-3-methylpiperidin-1-yl)(5-methyl-2-(2H-1,2,3-triazol-2-yl)phenyl)methanone] reads 19%; that for `Cc1ccc(-n2nccn2)c(C(=O)N2CCC[C@@H](C)[C@H]2CNc2ncc3c(C)cccc3n2)c1` [Example A214, ((2S,3R)-3-Methyl-2-(((5-methylquinazolin-2-yl)amino)methyl)piperidin-1-yl)(5-methyl-2-(2H-1,2,3-triazol-2-yl)phenyl)methanone], 69%; that for `Cc1ccc(-n2nccn2)c(C(=O)N2CCC[C@@H](C)[C@H]2CNc2ncc3ccc(C)cc3n2)c1` [Example A215, ((2S,3R)-3-Methyl-2-(((7-methylquinazolin-2-yl)amino)methyl)piperidin-1-yl)(5-methyl-2-(2H-1,2,3-triazol-2-yl)phenyl)methanone], 67%.

A word on the inhibition: it is the drop in the measured response relative to a control, in per cent. Higher therefore signals a response far below the control.

The values are drawn from patent US9440982B2 (Eolas Therapeutics, Inc., priority 2012, dated 2016).
